Measurements reported in patent US11661426B2, “Imidazole-containing inhibitors of ALK2 kinase” (BioCryst Pharmaceuticals, Inc., priority 2017, dated 2023).
pIC50: −log10 of the molar value.

molecular target: ALK2 (Homo sapiens (Human), UniProt Q04771); assay: ALK2 inhibition, LanthaScreen Eu Kinase Binding Assay (ThermoFisher Scientific / Life Technologies); details: read-out: Measured Ki (IC50) Value for Compounds: IC50
Protocol: Biochemical assays to measure the inhibitory effects of the compounds were performed by ThermoFisher Scientific (Life Technologies). ALK2 inhibition was tested using LanthaScreen™ Eu Kinase Binding Assay screening protocol.

Sequence of ALK2 (Q04771 21-509): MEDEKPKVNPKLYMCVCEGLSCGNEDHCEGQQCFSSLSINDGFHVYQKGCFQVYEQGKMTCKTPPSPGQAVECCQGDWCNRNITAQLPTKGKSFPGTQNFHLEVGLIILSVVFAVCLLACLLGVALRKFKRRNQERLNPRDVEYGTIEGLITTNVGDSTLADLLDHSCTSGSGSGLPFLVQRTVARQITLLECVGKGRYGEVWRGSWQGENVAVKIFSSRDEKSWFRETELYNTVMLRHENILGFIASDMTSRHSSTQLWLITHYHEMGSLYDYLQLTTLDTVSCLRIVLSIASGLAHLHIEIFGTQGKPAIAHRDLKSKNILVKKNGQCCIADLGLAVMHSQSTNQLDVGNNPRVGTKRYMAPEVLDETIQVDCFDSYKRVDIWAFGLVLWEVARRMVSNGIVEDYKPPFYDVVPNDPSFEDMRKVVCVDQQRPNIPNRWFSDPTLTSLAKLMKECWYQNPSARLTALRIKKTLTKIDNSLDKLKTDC

SMILES	pIC50
COc1cc(-n2cnc(Nc3nc(N4CCC[C@H]4CO)nn4c(CN5CCN(C6CC6)CC5)ccc34)c2)cc(OC)c1OC [Compound 106b, (S)-(1-(7-((4-cyclopropylpiperazin-1-yl)methyl)-4-((1-(3,4,5-trimethoxyphenyl)-1H-imidazol-4-yl)amino)pyrrolo[2,1-f][1,2,4]triazin-2-yl)pyrrolidin-2-yl)methanol]	> 7.00
COc1cc(-n2cnc(Nc3nc(N4CCC[C@H]4CO)nn4c(CN5CCN(C)CC5)ccc34)c2)cc(OC)c1OC [Compound 112b, (S)-(1-(7-((4-methylpiperazin-1-yl)methyl)-4-((1-(3,4,5-trimethoxyphenyl)-1H-imidazol-4-yl)amino)pyrrolo[2,1-f][1,2,4]triazin-2-yl)pyrrolidin-2-yl)methanol]	> 7.00
COCCN1CCN(Cc2ccc3c(Nc4cn(-c5cc(OC)c(OC)c(OC)c5)cn4)nc(N4CCC[C@H]4CO)nn23)CC1 [Compound 114b, (S)-(1-(7-((4-(2-methoxyethyl)piperazin-1-yl)methyl)-4-((1-(3,4,5-trimethoxyphenyl)-1H-imidazol-4-yl)amino)pyrrolo[2,1-f][1,2,4]triazin-2-yl)pyrrolidin-2-yl)methanol]	> 7.00
N#Cc1ccc(-n2cnc(Nc3nc(N4CCC[C@H]4CO)nn4cccc34)c2)cc1 [Compound 116c, (S)-4-(4-((2-(2-(hydroxymethyl)pyrrolidin-1-yl)pyrrolo[2,1-f][1,2,4]triazin-4-yl)amino)-1H-imidazol-1-yl)benzonitrile]	6.00 to 7.00
COc1cc(-n2cnc(Nc3nc(N4CCC[C@H]4C(N)=O)nn4c(CN5CCCCC5)ccc34)c2)cc(OC)c1OC [Compound 117a, (S)-1-(7-(piperidin-1-ylmethyl)-4-((1-(3,4,5-trimethoxyphenyl)-1H-imidazol-4-yl)amino)pyrrolo[2,1-f][1,2,4]triazin-2-yl)pyrrolidine-2-carboxamide]	> 7.00
COc1cc(-n2cnc(Nc3nc(N4CCC[C@H]4C(N)=O)nn4c(CN5CCC[C@H]5C(N)=O)ccc34)c2)cc(OC)c1OC [Compound 118b, (S)-1-((2-((S)-2-carbamoylpyrrolidin-1-yl)-4-((1-(3,4,5-trimethoxyphenyl)-1H-imidazol-4-yl)amino)pyrrolo[2,1-f][1,2,4]triazin-7-yl)methyl)pyrrolidine-2-carboxamide]	> 7.00
N#Cc1cccc(-n2cnc(Nc3nc(N4CCC[C@H]4CO)nn4cccc34)c2)c1 [Compound 119c, (S)-3-(4-((2-(2-(hydroxymethyl)pyrrolidin-1-yl)pyrrolo[2,1-f][1,2,4]triazin-4-yl)amino)-1H-imidazol-1-yl)benzonitrile]	> 7.00
COc1cc(-n2cnc(Nc3nc(N4CCC[C@H]4CO)nn4c(CN5CCN(C(=O)OC(C)(C)C)CC5)ccc34)c2)cc(OC)c1OC [Compound 121b, (S)-tert-butyl 4-((2-(2-(hydroxymethyl)pyrrolidin-1-yl)-4-((1-(3,4,5-trimethoxyphenyl)-1H-imidazol-4-yl)amino)pyrrolo[2,1-f][1,2,4]triazin-7-yl)methyl)piperazine-1-carboxylate]	> 7.00
CC(=O)c1cc(-n2cnc(Nc3nc(N4CCC[C@H]4CO)nn4cccc34)c2)ccc1O [Compound 123c, (S)-1-(2-hydroxy-5-(4-((2-(2-(hydroxymethyl)pyrrolidin-1-yl)pyrrolo[2,1-f][1,2,4]triazin-4-yl)amino)-1H-imidazol-1-yl)phenyl)ethanone]	> 7.00

The remaining lines, values ahead:

pIC50	SMILES
> 7.00	COc1cc(-n2cnc(Nc3nc(N4CCC[C@H]4CO)nc4sc(CN5CCN(C)CC5)cc34)c2)cc(OC)c1OC [Compound 104b, (S)-(1-(6-((4-methylpiperazin-1-yl)methyl)-4-((1-(3,4,5-trimethoxyphenyl)-1H-imidazol-4-yl)amino)thieno[2,3-d]pyrimidin-2-yl)pyrrolidin-2-yl)methanol]
> 7.00	COc1cc(-n2cnc(Nc3nc(N4CCC[C@H]4CO)nn4c(CN5CCCCC5)ccc34)c2)cc(OC)c1OC [Compound 105b, (S)-(1-(7-(piperidin-1-ylmethyl)-4-((1-(3,4,5-trimethoxyphenyl)-1H-imidazol-4-yl)amino)pyrrolo[2,1-f][1,2,4]triazin-2-yl)pyrrolidin-2-yl)methanol]
> 7.00	COc1cc(-n2cnc(Nc3nc(N4CCC[C@H]4CO)nn4c(C5=CCNCC5)ccc34)c2)cc(OC)c1OC [Compound 107a, (S)-(1-(7-(1,2,3,6-tetrahydropyridin-4-yl)-4-(1-(3,4,5-trimethoxyphenyl)-1H-imidazol-4-ylamino)pyrrolo[1,2-f][1,2,4]triazin-2-yl)pyrrolidin-2-yl)methanol]
> 7.00	COc1cc(-n2cnc(Nc3nc(N4CCC[C@H]4CO)nc4sc(CN5CCN(c6ccccn6)CC5)cc34)c2)cc(OC)c1OC [Compound 108b, (S)-(1-(6-((4-(pyridin-2-yl)piperazin-1-yl)methyl)-4-((1-(3,4,5-trimethoxyphenyl)-1H-imidazol-4-yl)amino)thieno[2,3-d]pyrimidin-2-yl)pyrrolidin-2-yl)methanol]
> 7.00	COc1cc(-n2cnc(Nc3nc(-c4cccc(C=O)c4)nc4sc(CO)cc34)c2)cc(OC)c1OC [Compound 109a, 3-(6-(hydroxymethyl)-4-((1-(3,4,5-trimethoxyphenyl)-1H-imidazol-4-yl)amino)thieno[2,3-d]pyrimidin-2-yl)benzaldehyde]
> 7.00	COc1cc(-n2cnc(Nc3nc(-c4cccc(C=O)c4)nn4cccc34)c2)cc(OC)c1OC [Compound 110a, 3-(4-((1-(3,4,5-trimethoxyphenyl)-1H-imidazol-4-yl)amino)pyrrolo[2,1-f][1,2,4]triazin-2-yl)benzaldehyde]
> 7.00	COc1cc(-n2cnc(Nc3nc(N4CCC[C@H]4CO)nn4c(CN5CCOCC5)ccc34)c2)cc(OC)c1OC [Compound 111b, (S)-(1-(7-(morpholinomethyl)-4-((1-(3,4,5-trimethoxyphenyl)-1H-imidazol-4-yl)amino)pyrrolo[2,1-f][1,2,4]triazin-2-yl)pyrrolidin-2-yl)methanol]
> 7.00	COc1cc(-n2cnc(Nc3nc(N4CCC[C@H]4CO)nc4sc(CN5CCCCC5)cc34)c2)cc(OC)c1OC [Compound 113b, (S)-(1-(6-(piperidin-1-ylmethyl)-4-((1-(3,4,5-trimethoxyphenyl)-1H-imidazol-4-yl)amino)thieno[2,3-d]pyrimidin-2-yl)pyrrolidin-2-yl)methanol]
> 7.00	COc1cc(-n2cnc(Nc3nc(N4CCC[C@H]4CO)c4ccccc4n3)c2)cc(OC)c1OC [Compound 115b, (S)-(1-(2-((1-(3,4,5-trimethoxyphenyl)-1H-imidazol-4-yl)amino)quinazolin-4-yl)pyrrolidin-2-yl)methanol]
> 7.00	COc1cc(-n2cnc(Nc3nc(N4CCC[C@H]4CO)nn4c(CNCC5CC5)ccc34)c2)cc(OC)c1OC [Compound 120a, (S)-(1-(7-(((cyclopropylmethyl)amino)methyl)-4-((1-(3,4,5-trimethoxyphenyl)-1H-imidazol-4-yl)amino)pyrrolo[2,1-f][1,2,4]triazin-2-yl)pyrrolidin-2-yl)methanol]
> 7.00	COc1cc(-n2cnc(Nc3nc(N4CCC[C@H]4CO)nn4c(CN5CCNCC5)ccc34)c2)cc(OC)c1OC [Compound 122a, (S)-(1-(7-(piperazin-1-ylmethyl)-4-((1-(3,4,5-trimethoxyphenyl)-1H-imidazol-4-yl)amino)pyrrolo[2,1-f][1,2,4]triazin-2-yl)pyrrolidin-2-yl)methanol]
